Laboratory results from BindingDB's records for doi:10.1021/acsmedchemlett.8b00379 (Bristol-Myers Squibb Research and Development, 2018).

Columns and labels:
[1] = Inhibition of HCV genotype 2a JFH1 NS5B RNA dependent RNA polymerase infected in human HuH7 replicon cells after 3 days by luciferase reporter gene assay
[2] = Inhibition of HCV genotype 1a NS5B RNA dependent RNA polymerase infected in human HuH7 replicon cells after 3 days by luciferase reporter gene assay
[3] = Inhibition of HCV genotype 1b NS5B RNA dependent RNA polymerase C316N mutant infected in human HuH7 replicon cells after 3 days by luciferase reporter gene assay
[4] = Inhibition of HCV genotype 1b NS5B RNA dependent RNA polymerase infected in human HuH7 replicon cells after 3 days by luciferase reporter gene assay

Row | Compound | EC50 [1] [nM] | EC50 [2] [nM] | EC50 [3] [nM] | EC50 [4] [nM]
1 | CCNc1cc2oc(-c3ccc(F)cc3)c(C(=O)NC)c2cc1-c1ccc(OC)c(C(=O)NC2(c3ncccn3)CC2)c1 | 12 | 2.3 | 3.6 | 1.2
2 | CCN(C(=O)C(F)(F)F)c1cc2oc(-c3ccc(F)cc3)c(C(=O)NC)c2cc1-c1ccc(OC)c(C(=O)NC2(c3ncccn3)CC2)c1 | 20 |  |  | 
3 | CNC(=O)c1c(-c2ccc(F)cc2)oc2ccc(-c3cccc(C(=O)NC4(c5ccccn5)CC4)c3)cc12 | 515 | 36 | 75 | 3.8
4 | CNC(=O)c1c(-c2ccc(F)cc2)oc2cc(N(CCO)S(C)(=O)=O)c(-c3cccc(C(=O)NC4(c5ccccn5)CC4)c3)cc12 | 22 | 35 | 385 | 52
5 | CNC(=O)c1c(-c2ccc(F)cc2)oc2cc(N(CCO)S(C)(=O)=O)c(-c3cccc(C(=O)NC4(c5ccccc5)CC4)c3)cc12 | 8.6 | 5.7 | 64 | 6.2
6 | CCN(c1cc2oc(-c3ccc(F)cc3)c(C(=O)NC)c2cc1-c1cccc(C(=O)NC2(c3ncccn3)CC2)c1)S(C)(=O)=O | 5.4 | 7.7 | 44 | 8.8
7 | CCN(c1cc2oc(-c3ccc(F)cc3)c(C(=O)NC)c2cc1-c1ccc(OC)c(C(=O)NC2(c3ncccn3)CC2)c1)S(C)(=O)=O | 13 |  |  | 

Now from value to compound, other results behind:

Row | EC50 [1] [nM] | Compound | EC50 [2] [nM] | EC50 [3] [nM] | EC50 [4] [nM]
8 | 15 | CCN(C(=O)OC)c1cc2oc(-c3ccc(F)cc3)c(C(=O)NC)c2cc1-c1ccc(OC)c(C(=O)NC2(c3ncccn3)CC2)c1 |  |  | 
9 | 35 | CCN(C(C)=O)c1cc2oc(-c3ccc(F)cc3)c(C(=O)NC)c2cc1-c1ccc(OC)c(C(=O)NC2(c3ncccn3)CC2)c1 |  |  | 
10 | 6.6 | CCN(c1cc2oc(-c3ccc(F)cc3)c(C(=O)NC)c2cc1-c1cc(Cl)c(OC)c(C(=O)NC2(c3ncccn3)CC2)c1)S(C)(=O)=O |  |  | 
11 | 9 | CCN(c1cc2oc(-c3ccc(F)cc3)c(C(=O)NC)c2cc1-c1cc(F)c(F)c(C(=O)NC2(c3ncccn3)CC2)c1)S(C)(=O)=O |  |  | 
12 | 16 | CCN(c1cc2oc(-c3ccc(F)cc3)c(C(=O)NC)c2cc1-c1cc(C)c(OC)c(C(=O)NC2(c3ncccn3)CC2)c1)S(C)(=O)=O |  |  | 
13 | 165 | CCN(C(=O)N(C)C)c1cc2oc(-c3ccc(F)cc3)c(C(=O)NC)c2cc1-c1ccc(OC)c(C(=O)NC2(c3ncccn3)CC2)c1 |  |  | 
14 | 8.8 | CCN(c1cc2oc(-c3ccc(F)cc3)c(C(=O)NC)c2cc1-c1cc(F)c(OC)c(C(=O)NC2(c3ncccn3)CC2)c1)S(C)(=O)=O |  |  | 
